Assay results as given in US9644213B2, “Method of enhancing plant drought tolerance by expression of NDR1” (BOARD OF TRUSTEES OF MICHIGAN STATE UNIVERSITY, priority 2012, dated 2017).

Columns and labels:
WT Col-0 stomata = assay: ABA-induced stomata closure in epidermal peels; assay type: cell-based, Arabidopsis thaliana; details: WT Col-0 epidermal peels; 10 μM ABA; 1 h; vs mock
Method: (§1) Stomata serve an important function in response to water stress, in large part by regulating transpiration rates. As an integral part of water stress, the regulation of stomatal aperture is a mechanism through which ABA-mediated signaling drives the conformational change in the shape of the guard cells, leading to a decrease in aperture size. To determine its putative role in linking ABA and stomata response, the NDR1 function was assayed. Epidermal peels of WT Col-0 and the ndr1 mutant were treated with 10 μM ABA, and after 1 hour, the stomata apertures were measured.

ndr1 stomata = assay: ABA-induced stomata closure in epidermal peels; assay type: cell-based, Arabidopsis thaliana; details: 10 μM ABA, 1 h, vs mock
Method: as §1

[1] = tested on: Arabidopsis thaliana Col-0 seeds; assay: Seed germination assay on ABA medium; assay type: in vivo
Method: (§2) Arabidopsis thaliana Col-0 and ndr1-1 seeds were surface sterilized with 50% bleach and 0.1% Triton X-100 for 20 min, with shaking, and rinsed five times with sterile distilled water under horizontal laminar flow hood. […] Plates were stratified at 4° C. for 4 days, in the dark, before being transferred to a growth chamber at 20° C., with a 12 h/12 h light/dark cycle and a light intensity of 120 μmol photons m^−2 s^−1.
(§3) During seed germination and dormancy assays, the radicle emergence was scored as germination and obvious cotyledons formation with green color was recorded as green cotyledons, respectively. The experiment was repeated five times, independently.

[2] = tested on: Arabidopsis thaliana ndr1-1 seeds; assay: Seed germination assay on ABA medium; assay type: in vivo; details: ndr1 mutant
Method: as §2, §3

CC1=CC(=O)CC(C)(C)[C@@]1(O)/C=C/C(C)=C\C(=O)O [ABA, abscisic acid]
stomata aperture (WT Col-0 stomata): significant reduction in aperture | stomata aperture (ndr1 stomata): did not show a change in aperture | germination rate (radicle emergence) ([1]; 0.5 μM ABA): 65% | germination rate (radicle emergence) ([1]; 1.0 μM ABA): 36% | germination rate (radicle emergence) ([2]; 0.5 μM ABA): 90% | germination rate (radicle emergence) ([2]; 1.0 μM ABA): 65%
